The subject of data set [1] is mice with MIA-induced inflammatory chronic pain. As to the kind of experiment: von Frey mechanical sensitivity in MIA-induced inflammatory chronic pain. It counts as in vivo, mouse. The conditions noted are these: for acupuncture-induced RHyp (resolution of hypersensitivity): agent given with repetitive acupuncture (DPCPX, topical lidocaine at ST36; caffeine oral 0.1 mg/ml); for acupuncture-induced acute analgesia: agent applied at ST36 prior to each acupuncture. An excerpt: To assess if repetitive application of acupuncture produces an extension of transient analgesia or RHyp, inflammatory chronic pain was induced by administering monosodium iodoacetate (MIA) in the hind limb knee joints of mice (FIG. 1A and FIG. 5A), in which spreading of hypersensitivity (hyperalgesia and allodynia) in the limb develops in 3 weeks and never wears off thereafter (Combe et al., 2004, Neurosci Lett 370:236-240; Ogbonna et al., 2015, Age (Dordr) 37:9792; Rahman & Dickenson, 2015, Neuroscience 295:103-116). […] Manual acupuncture, given twice a week at ST36, induced acute analgesia in weeks 2 and 3 as well. […] This delayed-onset reduction of hypersensitivity was not a result of loss of the knee arthritis pathology, as indicated by the synovial membrane hypertrophy (FIG. 5B). […] In order to identify the cell type whose A1R mediates acute analgesia and RHyp, transgenic mice with conditional deletion of A1R selectively in sensory neurons were generated (Akopian et al, 1996, Nature 379:257-262; Stirling et al., 2005, Pain 113:27-36). (FIG. 5C). […] Both acute analgesia and RHyp were absent with repetitive administration of vehicle (FIG. 5D). […] Combined, chronic activation of A1R in sensory neurons resolves sensitization state, which can be induced by repetitive acupuncture.
Mechanical sensitivity was measured using a slightly modified Semmes-Weinstein von Frey Aesthesiometer touch test. Before beginning the measurement session, animals were acclimated to the acrylic chamber (IITC Life Science, Woodland Hills, Calif.) for 60 minutes per day for two days. Baseline mechanosensitivity was measured at least twice on different days to validate the stable, low mechanosensitivity in all mice prior to pain induction administered on the day of the second measurement. The average of the two measurements was recorded as the baseline sensitivity value. Pain-induced hyper-mechanosensitivity was evaluated three weeks after the intra-articular administration of monosodium iodoacetate (MIA, Sigma-Aldrich, 60 mg/ml, 5 μl) to a knee joint. Of note, most other inflammatory pain models cannot stably sustain hypersensitivity over months. The evaluation was performed by gently applying a thin filament of 0.04 g force to the hind paw of the animals, and the rapid retraction or tapping of the foot was counted as a positive response. A total of six trials were given to a paw in one measurement session with an interval of at least 5 min between each trial. Positive responses in the all trials were recorded, and the data were represented as the percent of positive responses. Percent change in mechanosensitivity by treatments was obtained by subtracting values of percent responses before acupuncture from that after acupuncture for each animal. […] All behavioral measurements were done at the same time of the day during the 12-hour light cycle.
For acupuncture treatment, animals were placed in a restrainer with the hind leg, ipsilateral to the knee inflammation, secured and loosely stretched. An acupuncture needle (0.20 mm; DBC Spring, Lhasa OMS, Weymouth, Mass.) was gently inserted to ST36 Zusanli point (3-4 mm below and 1-2 mm lateral from the midline from the knee) at a depth of 1.5 mm,^40 then slowly rotated for 1 minute every 3-4 minutes for a 20-minute session while the mice were awake. For sham treatment, the acupuncture needle was inserted in the same way, but then untouched for 20 minutes. The animals were immediately transferred back to the chamber and acclimated for at least 15 minutes before the post-treatment mechanosensitivity measurements. In selected experiments, solution of 2-Chloro-N^6-cyclopentyladenosine (CCPA, Sigma-Aldrich, 100 μM, 5 μl) was administered to ST36 at a depth of 1.5 mm instead of acupuncture needle. 8-Cyclopentyl-1,3-dipropylxanthine (DPCPX, Sigma-Aldrich, 100 µM, 5 μl) was administered to ST36 at a depth of 1.5 mm prior to acupuncture needle insertion. […]

Data set [2] is described as follows: in vitro release of CCPA from Fmoc-F5-Phe cation hydrogel (HPLC). It counts as physicochemical. As to conditions: 37° C. How it is done: To determine the amount of CCPA released from a 1 mL hydrogel of the Fmoc-F^5-Phe cation (33.7 mM Fmoc-F^5-Phe cation, 114 mM NaCl, 0.5 mM CCPA) as a function of time, 1.5 mL of isotonic water (114 mM NaCl) was slowly added to the top of the gel to avoid disrupting the gel. This bilayer mixture was sealed in a screw top vial and placed in a 37° C. oven. Aliquots (80 μL) were removed 20 min, 40 min, 60 min, 2 h, 3 h, 4 h, 6 h, 30 h, 54 h, and 78 h after the salt water was initially layered over the gel. After removing each aliquot, the salt solution was immediately replaced with an equal volume of salt solution (80 μL, 114 mM NaCl). Aliquots were assessed by injection onto analytical HPLC instrument in order to determine the amount of CCPA that had been released. A Shimadzu 2010A HPLC instrument equipped with a Phenomenex Gemini 5 micron C18 column (250×4.6 mm) with a guard column was used to determine concentration of the CCPA released into the 1.5 mL salt solution by correlation of integrated peak area to a previously constructed CCPA concentration curve. This concentration was converted to mol of CCPA and the diffusion coefficient was determined using Equation 1. […]

Data set [3] relates to sciatic nerve tissue. As to the kind of experiment: CCPA permeability into sciatic nerve in vivo. Also on record: species or system mouse. As for the experimental part: For quantification of CCPA permeability, parafilm (7×20 mm) was placed underneath of the exposed sciatic nerve which was then covered with a custom-made enclosure (6.5 mm length plastic tube, 1.5 mm inner diameter with 120° opening) to control the length of nerve exposed to the drugs. The enclosure surrounding the nerve was gently filled with 10 μl of CCPA (5 mM) alone or a mixture of CCPA and an ENT1/2 inhibitor, 6-S-[(4-Nitrophenyl)methyl]-6-thioinosine (NBMPR, Thermo Fisher, 1 mM). After 90 minutes, the nerve was washed with PBS, extracted (6 mm length), and stored at −80° C. Tissues were homogenized in methanol using FastPrep-24 5G with CoolPrep adapter (MP Biomedicals) and incubated for 12-14 hours at −20° C. After centrifuging at 12,000 g for 15 minutes, the supernatants were dried down in CentriVap concentrator and then reconstituted in 50% DMSO. In the pilot studies, it was confirmed that highest recovery rate of CCPA was obtained with homogenization in methanol, compared to that in ethanol or HEPES buffer solution followed by ultrafilteration, and recovery rate was calculated as 95.19%. The concentrations of CCPA in samples were quantified by HPLC.

Data set [4] deals with mice with CFA-induced acute inflammatory pain. Nature of the data set: ankle circumference (swelling) in CFA model. It counts as in vivo, mouse. As to conditions: day five, compared to CFA-induced group that received F5-Phe gel.
Data set [5] has the same test system. Nature of the data set: von Frey mechanical sensitivity in CFA-induced acute inflammatory pain. It counts as in vivo, mouse.

Consider eight compounds from US20200276312A1, “Elimination of chronic pain by chronic activation of adenosine receptor type A1 in peripheral sensory neurons” (University of Rochester, priority 2019, published 2020).

Entries after “also recorded” stand apart in the source; their conditions may differ.

As for `Cn1c(=O)c2c(ncn2C)n(C)c1=O` [caffeine], the “acupuncture-induced RHyp (resolution of hypersensitivity)” value (from here on “acupuncture-induced RHyp”) in data set [1] was “abolished”.

`COc1cccc(C2(O)CCCCC2CN(C)C)c1` (stereo not drawn) [tramadol]: in data set [1] (repetitive systemic administration), the “acute analgesia and RHyp” value is “gradual loss of acute analgesia instead of RHyp”.

Take `CCCn1c(=O)c2[nH]c(C3CCCC3)nc2n(CCC)c1=O` [DPCPX, 8-Cyclopentyl-1,3-dipropylxanthine]: in data set [1], the acupuncture-induced acute analgesia entry is “inhibited the manifestation” and the “acupuncture-induced RHyp” value is on record as “inhibited the manifestation”.

As to `OC[C@H]1O[C@@H](n2cnc3c(NC4CCCC4)nc(Cl)nc32)[C@H](O)[C@@H]1O` [CCPA, 2-Chloro-N^6-cyclopentyladenosine], in data set [1] (A1R conditional knockout (A1RcKO) mice, repetitive administration), the “response of hypersensitivity (acute analgesia, RHyp)” value was “unresponsive”. Also, the re-emergence of hypersensitivity result in data set [1] (WT animals, post-treatment observation period) is “never re-emerged”. Moreover, in data set [1] (repetitive CCPA solution (100 μM, 5 μl) at ST36 instead of acupuncture), the RHyp entry is recorded as “induced RHyp”. The “diffusion coefficient of CCPA release” value in data set [2] (1 mL gel, 33.7 mM gelator, 500 μM CCPA, 114 mM NaCl, first 200 minutes) is on record as 3.15×10^−9 m^2 min^−1. In addition, the “duration of continuous release from F5-Phe hydrogel” value in data set [2] (CCPA 500 μM) came to 15 days. In data set [3] (CCPA 5 mM applied outside the nerve in vivo, 90 minutes), the “CCPA entry into sciatic nerve” value is reported as “found inside the sciatic nerve tissue”.

For the compound `CCN(CC)CC(=O)Nc1c(C)cccc1C` [lidocaine], in data set [1], the acupuncture-induced acute analgesia result was “loss of acupuncture-induced acute analgesia” and the “acupuncture-induced RHyp” value is given as “RHyp was induced”. The hind paw sensitivity entry in data set [1] (topical 5% lidocaine at ST36 without acupuncture) is recorded as “no changes in hind paw hypersensitivity; also recorded: did not modulate hind paw sensitivity”.

Take `O=[N+]([O-])c1ccc(CSc2ncnc3c2ncn3[C@@H]2O[C@H](CO)[C@@H](O)[C@H]2O)cc1` [NBMPR, 6-S-[(4-Nitrophenyl)methyl]-6-thioinosine]: the “effect on CCPA entry into sciatic nerve” value in data set [3] (NBMPR 1 mM mixed with CCPA 5 mM) is given as “reduced the CCPA entry”.

As to `O=C(O)Cc1ccccc1Nc1c(Cl)cccc1Cl` [Dcf, diclofenac], in data set [4], the ankle circumference entry is given as “slightly lower circumferences”. Also, the mechanical sensitivity in data set [5] (from 24 h after injection over the final 13 days, 0.1 mg/mL, 10 μL) is given as around 80%. The “relative percentage of hind paw sensitivity” value in data set [5] (within hours of injection, versus gel lacking diclofenac) is on record as “decreased significantly”.

Regarding `CCCC(=O)Nc1ncnc2c1ncn2[C@@H]1O[C@@H]2COP(=O)(O)O[C@H]2[C@H]1OC(=O)CCC` [dbcAMP, N^6,O^2-dibutyryladenosine 3,5-cyclic monophosphate], the “delay of onset of RHyp” value in data set [1] (co-delivered with CCPA by F5-Phe, submuscular at ST36) worked out at 3 weeks.
